# Literature values as cited in patent publication US12539267B2, “Product for dyeing keratinous material, containing aminosilicone, a chromophoric compound and organic carbonic acid ester” (Henkel AG & Co. KGaA, priority 2019, dated 2026).
# Conditions: 25° C.
solubility in water (in words),SMILES,solubility in water
,"O=S(=O)([O-])c1ccc(N=Nc2c(O)ccc3ccccc23)cc1.[Na+] [Acid Orange 7, sodium salt of 4-[(2-hydroxy-1-naphthyl)azo]benzene sulphonate]",more than 7 g/L
,"Nc1cc(S(=O)(=O)[O-])cc2cc(S(=O)(=O)[O-])c(N=Nc3ccccc3)c(O)c12.[Na+].[Na+] [Acid Red 33, diantrium salt of 5-amino-4-hydroxy-3-(phenylazo)-naphthalene-2,7-disulphonate]",2500 µg/mL
,"O=C([O-])c1c(Cl)c(Cl)c(Cl)c(Cl)c1-c1c2c(Br)cc(=O)c(Br)c-2oc2c(Br)c(O)cc(Br)c12.O=C([O-])c1c(Cl)c(Cl)c(Cl)c(Cl)c1-c1c2c(Br)cc(=O)c(Br)c-2oc2c(Br)c(O)cc(Br)c12.[Na+].[Na+] [Acid Red 92, disodium salt of 3,4,5,6-tetrachloro-2-(1,4,5,8-tetrabromo-6-hydroxy-3-oxoxanthen-9-yl)benzoic acid]",greater than 10 g/L
highly soluble in water,"O=C([O-])C1=NN(c2ccc(S(=O)(=O)[O-])cc2)C(=O)C1N=Nc1ccc(S(=O)(=O)[O-])cc1.[Na+].[Na+].[Na+] (stereo not shown) [Acid Yellow 23, trisodium salt of 4,5-dihydro-5-oxo-1-(4-sulfophenyl)-4-((4-sulfophenyl)azo)-1H-pyrazole-3-carboxylic acid]",
